# Source: paper PMC7139549, “TLD1433 Photosensitizer Inhibits Conjunctival Melanoma Cells in Zebrafish Ectopic and Orthotopic Tumour Models” (Cancers, 2020)
# Experiments:
# [1] = tested on: CRMM1 engrafted cells in zebrafish orthotopic model; experiment: In situ TUNEL assay, CRMM1 orthotopic zebrafish model; type: in vivo, Zebrafish (Danio rerio); conditions: RO 2.3 mM
# Protocol: In situ TUNEL assay on fixed embryos was used to detect TLD1433 induced apoptosis in zebrafish CRMM1 and CRMM2 orthotopic tumour models at 4 dpi after light activation of 2.3 mM TLD1433, administrated by retro orbital injection. The DNA strand breaks in apoptotic tumour cells were stained with fluorescein and visualized as a green signal.
# Figure 10 TUNEL assay of in CRMM1 and CRMM2 orthotopic model after RO of TLD1433. Red fluorescent CRMM1 (A) and CRMM2 (B) cells were injected at 2dpf behind the ZF eye and divided into four groups for drug treatment. RO administration of vehicle control and TLD1433 was performed as described in Figure 9C,E. After dark or light exposure (21 mW/cm^2, 114 J.cm^−2, 520 nm) embryos were fixed and TUNEL staining was performed. Representative images of embryos are shown in this figure. (A,B) In TLD1433 light groups nuclear DNA fragmentation by nucleases is detected by co-localization of green (DNA fragments) and red signal of engrafted CM cells, depicted as yellow signal and marked by white arrows. In control dark, control light, TLD1433 dark, there are no positive green apoptotic tumour cells observed. […] Experiment was performed 3 times with a group size of 10 embryos.
# The zebrafish larvae were fixed overnight with 4% PFA at 4 °C. Embryos were washed in PBST for 5 min and dehydrated by a graded methanol series until reaching 100% methanol. […]
# CRMM1 cells = experiment: Annexin-V-FITC / Propidium Iodide FACS, CRMM1; type: cell-based, Human
# Source text: Depending on the nature and intracellular localization of a PS, the light dose, and the cell type, PDT is known to provoke either necrosis, apoptosis, or autophagy. In order to investigate the death mechanism induced by green light-activated TLD1433 in CRMM1 and CRMM2 cells, the cells were stained with Annexin V and propidium iodide, and further analysed by fluorescence-activated cell sorting (FACS).
# Figure 3 Green light irradiation of TLD1433 induces apoptosis and necrosis in CRMM1 and CRMM2 cells. (A) CRMM1 and (C) CRMM2 were stained with Annexin-V-FITC and Propidium Iodide. The percentages of live, early apoptotic, later apoptotic and necrotic cells in CRMM1 (B) and CRMM2 (D) were counted by FACS. Results are presented as means ± SD from three independent experiments. […]
smiles,measurement,setting,value
Cc1ccnc(-c2cc(C)ccn2)c1.Cc1ccnc(-c2cc(C)ccn2)c1.[Cl-].[Cl-].[Ru+2].c1csc(-c2ccc(-c3ccc(-c4nc5c6cccnc6c6ncccc6c5[nH]4)s3)s2)c1 [TLD1433],TUNEL apoptosis of engrafted cells (in words),"[1]; dark, 4 dpi",no positive green signal detected
same,TUNEL apoptosis of engrafted cells (in words),"[1]; light 114 J.cm^−2, 4 dpi",induced CRMM1 and CRMM2 cell apoptosis
same,cell fate by FACS (in words),"CRMM1 cells; CRMM1, dark TLD1433 group",most cells were found alive
same,cell fate by FACS (in words),"CRMM1 cells; CRMM1, light-activated TLD1433 group",about half of the cells were found dead
